# Test system: not given
# Assay: not given
# Conditions: long term treatment; cited from earlier work
Compound,coronary constrictive remodeling,coronary stenosis
O=S(=O)(c1cccc2cnccc12)N1CCCNCC1 [fasudil],promote a regression of coronary constrictive remodeling,progressively reduce coronary stenosis

# Test system: not given
# Assay: not given
# Conditions: rat stroke model; cited from earlier work
row,Compound,infarct size and neurologic deficit
1,O=S(=O)(c1cccc2cnccc12)N1CCCNCC1 [fasudil],reduce both the infarct size and neurologic deficit

# Molecular target: T1, ROCKII (1-543) kinase (Homo sapiens, UniProt O75116)
# T1 construct: ROCKII (1-543) (62,408 Da) was diluted in assay buffer to a final concentration of 7.5 nM
# Assay: Molecular assay: ROCKII (1-543) kinase activity, PKLight ATP detection (luciferin-luciferase, residual ATP)
# Format: biochemical
# Conditions: 750 nM ATP, 500 nM peptide substrate, 7.5 nM kinase, 90 min at 28° C.; read-out: Rock2 IC50
# Protocol: The activity of ROCKII (1-543) kinase was measured utilizing Cambrex PKLight ATP Detection Reagent, a homogeneous assay technology using luciferin-luciferase to quantify residual ATP. The assay was performed in 384-well low-volume, white, non-binding surface microtiter plates (Corning). The assay buffer was 25 mM HEPES, pH 7.5, 10 mM MgCl2, 50 mM KCl, 0.2% BSA, 0.01% CHAPS, 100 μM Na3VO4 and 0.5 mM DTT. Test compounds, dissolved in neat DMSO at 500 μg/mL, were serially diluted for dose response for a final starting concentration of 3 μg/mL in 1% DMSO of assay buffer. ROCKII (1-543) (62,408 Da) was diluted in assay buffer to a final concentration of 7.5 nM in a total volume of 15 μL. Positive controls were reaction mixtures containing no test compound; negative controls (blanks) were reaction mixtures containing no kinase. After 15 minutes of pre-incubation of the test compounds with the kinase, a mixture of ATP and peptide substrate ([…]) in assay buffer was added to each well for a final concentration of 750 nM ATP and 500 nM peptide, respectively. After 90 minutes of incubation of the kinase reaction at 28° C. temperature, 10 μL of PKLight ATP Detection Reagent (warmed to room temperature previously) was added to each well. The assay plate was incubated at room temperature for additional 15 minutes and then read on an Analyst in luminescence mode. Dose-response experiments for each of the test compounds were conducted in quadruplet. IC50 values of test compounds represent 50% response of the positive control from the dose-response curve.
# Representative compounds of the present invention were tested for activity in this assay and all had IC50 values <10 μM. Preferred compounds have an IC50<1 μM and more preferred compounds have an IC50<0.1 μM in this assay. As examples the following data were obtained for the compounds named below: […]
# T1 sequence (O75116 1-543): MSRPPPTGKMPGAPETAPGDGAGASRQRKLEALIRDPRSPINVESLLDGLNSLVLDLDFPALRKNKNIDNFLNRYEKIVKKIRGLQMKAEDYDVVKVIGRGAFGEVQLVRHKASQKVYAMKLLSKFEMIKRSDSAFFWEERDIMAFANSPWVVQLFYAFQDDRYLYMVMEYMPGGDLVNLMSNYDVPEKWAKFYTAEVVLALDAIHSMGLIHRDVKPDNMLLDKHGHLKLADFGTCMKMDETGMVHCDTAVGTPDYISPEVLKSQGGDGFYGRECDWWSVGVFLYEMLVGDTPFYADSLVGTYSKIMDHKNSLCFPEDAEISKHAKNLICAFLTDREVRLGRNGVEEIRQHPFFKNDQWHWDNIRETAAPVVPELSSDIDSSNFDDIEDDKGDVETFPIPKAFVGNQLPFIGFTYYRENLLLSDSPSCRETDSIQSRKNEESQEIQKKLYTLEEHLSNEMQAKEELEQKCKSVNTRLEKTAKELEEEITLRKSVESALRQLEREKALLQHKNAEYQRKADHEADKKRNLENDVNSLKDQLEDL
row,Compound,IC50
1,"COc1ccc(C(=O)NCc2cccc(C(=O)Nc3cnc4c(c3)CN(C)CC4)c2)cc1OC [3,4-Dimethoxy-N-[3-(6-methyl-5,6,7,8-tetrahydro-[1,6]naphthyridin-3-ylcarbamoyl)-benzyl]-benzamide]",61 nM
2,"COc1ccc(C(=O)NCc2cccc(NC(=O)c3nc4c(s3)CNCC4)c2)cc1OC [4,5,6,7-Tetrahydro-thiazolo[5,4-c]pyridine-2-carboxylic acid {3-[(3,4-dimethoxy-benzoylamino)-methyl]-phenyl}-amide]",22 nM
3,"CN1CCc2nc(NC(=O)c3cccc(CNC(=O)Nc4ccc(C#N)cc4)c3)sc2C1 [3-[3-(4-Cyano-phenyl)-ureidomethyl]-N-(5-methyl-4,5,6,7-tetrahydro-thiazolo[5,4-c]pyridin-2-yl)-benzamide]",10 nM
4,"CCCN[C@H]1CCc2nc(N(CCOC)C(=O)c3cccc(CNC(=O)c4ccc(OC)c(Cl)c4)c3)sc2C1 [3-Chloro-4-methoxy-N-{3-[(2-methoxy-ethyl)-((S)-6-propylamino-4,5,6,7-tetrahydro-benzothiazol-2-yl)-carbamoyl]-benzyl}-benzamide]",72 nM
5,"COc1ccc(C(=O)NCc2cccc(C(=O)Nc3ccc4c(c3)CC(N)C4)c2)cc1OC (centres unmarked) [N-[3-(2-Amino-indan-5-ylcarbamoyl)-benzyl]-3,4-dimethoxy-benzamide]",12 nM
6,"COc1ccc(C(=O)NCc2cccc(C(=O)Nc3ccc4c(c3)CNC4)c2)cc1OC [N-[3-(2,3-Dihydro-1H-isoindol-5-ylcarbamoyl)-benzyl]-3,4-dimethoxy-benzamide]",6 nM
7,"COc1ccc(C(=O)NCc2cccc(C(=O)Nc3ncc(CCN4CCN(C)CC4)s3)c2)cc1OC [3,4-Dimethoxy-N-(3-{5-[2-(4-methyl-piperazin-1-yl)-ethyl]-thiazol-2-ylcarbamoyl}-benzyl)-benzamide]",20 nM
8,"COc1ccc(C(=O)NCc2cccc(C(=O)Nc3ccc4c(c3)CCNCC4)c2)cc1OC [3,4-Dimethoxy-N-[3-(2,3,4,5-tetrahydro-1H-benzo[d]azepin-7-ylcarbamoyl)-benzyl]-benzamide]",15 nM
9,"CCN1CCc2ccc(NC(=O)c3cccc(CNC(=O)c4ccc(OC)c(OC)c4)c3)cc2C1 [N-[3-(2-Ethyl-1,2,3,4-tetrahydro-isoquinolin-7-ylcarbamoyl)-benzyl]-3,4-dimethoxy-benzamide]",27 nM
10,"CCCN[C@H]1CCc2nc(NC(=O)c3cccc(CNC(=O)c4ccc(OC)c(Cl)c4)c3)sc2C1 [3-Chloro-4-methoxy-N-[3-((S)-6-propylamino-4,5,6,7-tetrahydro-benzothiazol-2-ylcarbamoyl)-benzyl]-benzamide]",2 nM
11,"COc1ccc(C(=O)NCc2cccc(C(=O)Nc3nc4c(s3)CNCC4)c2)cc1Cl [3-Chloro-4-methoxy-N-[3-(4,5,6,7-tetrahydro-thiazolo[5,4-c]pyridin-2-ylcarbamoyl)-benzyl]-benzamide]",4 nM
12,"COc1ccc(C(=O)NCc2cccc(C(=O)Nc3nc4c(s3)C[C@@H](N3CCOCC3)CC4)c2)cc1OC [3,4-Dimethoxy-N-[3-((S)-6-morpholin-4-yl-4,5,6,7-tetrahydro-benzothiazol-2-ylcarbamoyl)-benzyl]-benzamide]",1 nM
13,COc1ccc(C(=O)NCc2cccc(C(=O)Nc3ccc(CCN4CCCC4)cc3)c2)cc1C [4-Methoxy-3-methyl-N-{3-[4-(2-pyrrolidin-1-yl-ethyl)-phenylcarbamoyl]-benzyl}-benzamide],120 nM
14,"COCCN1CCc2ccc(NC(=O)c3cccc(CNC(=O)c4ccc(OC)c(OC)c4)c3)cc2C1 [3,4-Dimethoxy-N-{3-[2-(2-methoxy-ethyl)-1,2,3,4-tetrahydro-isoquinolin-7-ylcarbamoyl]-benzyl}-benzamide]",99 nM
15,"COc1ccc(C(=O)NCc2cccc(C(=O)Nc3nc4c(s3)C[C@H](N(C)C)CC4)c2)cc1OC [N-[3-((R)-6-Dimethylamino-4,5,6,7-tetrahydro-benzothiazol-2-ylcarbamoyl)-benzyl]-3,4-dimethoxy-benzamide]",1 nM
16,"COc1ccc(C(=O)NCc2cccc(C(=O)Nc3nc4c(s3)C[C@@H](N3CCS(=O)(=O)CC3)CC4)c2)cc1OC [N-{3-[(S)-6-(1,1-Dioxo-thiomorpholin-4-yl)-4,5,6,7-tetrahydro-benzothiazol-2-ylcarbamoyl]-benzyl}-3,4-dimethoxy-benzamide]",13 nM
17,"COc1ccc(C(=O)NCc2cccc(C(=O)Nc3ccc(OCCN4CCOCC4)cc3)c2)cc1OC [3,4-Dimethoxy-N-{3-[4-(2-morpholin-4-yl-ethoxy)-phenylcarbamoyl]-benzyl}-benzamide]",58 nM

# Reference: US8093266B2, “Rho kinase inhibitors” (Boehringer Ingelheim International GmbH, priority 2007, dated 2012)
